According to patent US20240358692A1, “TREATMENT OF SCLERODERMA” (Aisa Pharma, Inc., priority 2023, published 2024):

What was measured:
participants with SSc-RP [1] = experiment: Frequency of weekly RP attacks (all attacks; primary endpoint), patient diary; assay type: in vivo, human; details: for reduction in weekly frequency of attacks: typical Raynaud attacks
From the text: Percent change from baseline evaluation for frequency of weekly RP attacks were or will be used as the primary efficacy variable. The sponsor-developed participant-informed diary will be used to record data. Frequency of weekly RP attacks is defined as the total number of RP attacks divided by the number of days with available diary data within the last 7 days of each dosing period then multiplied by 7. Total number of RP attacks during the last 7 days of screening period divided by the number of days with available data then multiplied by 7 will be used as baseline for the analysis of all periods. The variable will be calculated as follows: […]
Percent change from baseline evaluation for frequency of weekly RP attacks was and will be the primary efficacy endpoint. Frequency of weekly RP attacks is defined as the total number of RP attacks divided by the number of days with available diary data within the last 7 days of each dosing period then multiplied by 7. Total number of RP attacks during the last 7 days of screening period divided by the number of days with available data then multiplied by 7 will be used as baseline for the analysis of all periods.

participants with SSc-RP [2] = experiment: SHAQ - Visual Analog Scale - Finger Ulcers; assay type: in vivo, human
From the text: The standard, validated, patient reported outcome measures tool for SSc patients, the Scleroderma Health Assessment Questionnaire (SHAQ), will be used to assess the participant qualify of life. Details are attached in the Appendix. The participant quality of life will be scored, and a disability index calculated for each questionnaire completed by the patient at Screening and each in-clinic visit. The absolute change in participant quality of life from baseline to the end of each dosing period will be calculated similar to frequency data as before.
The standard, validated, patient reported outcome measures tool for SSc patients, the SHAQ, was collected at the time points specified in the study schedules (FIG. 2 and FIGS. 4A and 4B) to assess the participant's quality of life. The SHAQ included a Raynaud's VAS that will also be reported separately.

[3] = cilnidipine 10 mg daily, n=1, ITT Part A, last 7 days of dosing
[4] = cilnidipine 20 mg daily, n=2, ITT Part A, excluding outliers, last 7 days of dosing
[5] = cilnidipine 20 mg daily, n=2, ITT Part A, last 7 days of dosing
[6] = Any Cilnidipine (N = 17), Day 12, PP Population, Part A
[7] = Cilnidipine 10 mg (N = 4), Day 12, PP Population, Part A
[8] = Cilnidipine 20 mg (N = 4), Day 12, PP Population, Part A
[9] = Pooled Cilnidipine 10 mg and Cilnidipine 10 mg + Tadalafil 5 mg, PP, Part A
[10] = Pooled Cilnidipine 20 mg and Cilnidipine 20 mg + Tadalafil 5 mg, PP, Part A

SMILES: COCCOC(=O)C1=C(C)NC(C)=C(C(=O)OC/C=C/c2ccccc2)C1c1cccc([N+](=O)[O-])c1 (stereo not shown) [Cilnidipine]
- Weekly RP Attacks (All Attacks) Change from Baseline, Mean (participants with SSc-RP [1]; [3]): −9.00
- Weekly RP Attacks (All Attacks) Change from Baseline, Median (participants with SSc-RP [1]; [3]): −9.00
- Weekly RP Attacks (All Attacks), Mean (participants with SSc-RP [1]; [3]): 23.00
- Weekly RP Attacks (All Attacks), Median (participants with SSc-RP [1]; [3]): 23.00
- Weekly RP Attacks (All Attacks) Change from Baseline, Mean (participants with SSc-RP [1]; [4]): −6.67
- Weekly RP Attacks (All Attacks) Change from Baseline, Median (participants with SSc-RP [1]; [4]): −6.67
- Weekly RP Attacks (All Attacks) Percent Change from Baseline, Mean (participants with SSc-RP [1]; [4]): −45.71%
- Weekly RP Attacks (All Attacks) Percent Change from Baseline, Median (participants with SSc-RP [1]; [4]): −45.71%
- Weekly RP Attacks (All Attacks), Mean (participants with SSc-RP [1]; [4]): 8.00
- Weekly RP Attacks (All Attacks), Median (participants with SSc-RP [1]; [4]): 8.00
- Weekly RP Attacks (All Attacks), Mean (participants with SSc-RP [1]; [5]): 8.00
- Weekly RP Attacks (All Attacks), Median (participants with SSc-RP [1]; [5]): 8.00
- reduction in weekly frequency of attacks (participants with SSc-RP [1]; cilnidipine 10 mg (dose response, n=3)): 28%
- reduction in weekly frequency of attacks (participants with SSc-RP [1]; cilnidipine 20 mg (dose response, n=3)): 46%
- SHAQ Visual Analogue Scale - Finger Ulcers, Change from Baseline, Mean (SD) (participants with SSc-RP [2]; [6]): −0.540 (1.0568)
- SHAQ Visual Analogue Scale - Finger Ulcers, Change from Baseline, Median (participants with SSc-RP [2]; [6]): −0.100
- SHAQ Visual Analogue Scale - Finger Ulcers, In-Clinic Visit (Day 12), Mean (SD) (participants with SSc-RP [2]; [6]): 0.731 (1.4351)
- SHAQ Visual Analogue Scale - Finger Ulcers, In-Clinic Visit (Day 12), Median (participants with SSc-RP [2]; [6]): 0.000
- SHAQ Visual Analogue Scale - Finger Ulcers, Percent Change from Baseline, Mean (SD) (participants with SSc-RP [2]; [6]): −33.91 (69.617) %
- SHAQ Visual Analogue Scale - Finger Ulcers, Percent Change from Baseline, Median (participants with SSc-RP [2]; [6]): −36.11%
- SHAQ Visual Analogue Scale - Finger Ulcers, Change from Baseline, Median (participants with SSc-RP [2]; [7]): −0.350
- SHAQ Visual Analogue Scale - Finger Ulcers, In-Clinic Visit (Day 12), Median (participants with SSc-RP [2]; [7]): 0.000
- SHAQ Visual Analogue Scale - Finger Ulcers, In-Clinic Visit (Day 12), Median (participants with SSc-RP [2]; Cilnidipine 10 mg, Day 12, PP Population Part A, sensitivity analysis): 0.000
- SHAQ Visual Analogue Scale - Finger Ulcers, Change from Baseline, Median (participants with SSc-RP [2]; [8]): 0.000
- SHAQ Visual Analogue Scale - Finger Ulcers, In-Clinic Visit (Day 12), Median (participants with SSc-RP [2]; [8]): 0.350
- % improvement in VAS Digital Ulcers (participants with SSc-RP [2]; Cilnidipine 20 mg (n = 3), SHAQ, mITT Part A): 35%
- SHAQ Burden of Finger Ulcers, mean % change (participants with SSc-RP [2]; Cilnidipine 20 mg (n = 3), minus = improvement, Table A*): −17%
- SHAQ Visual Analogue Scale - Finger Ulcers, In-Clinic Visit (Day 12), Mean (participants with SSc-RP [2]; Pooled Cilnidipine 10 mg and Cilnidipine 10 mg + Tadalafil 5 mg (N = 9), Modified ITT Population - Part A): 0.389
- SHAQ VAS Finger Ulcers, Change from Baseline, Max (participants with SSc-RP [2]; [9]): 0.00
- SHAQ VAS Finger Ulcers, Change from Baseline, Min (participants with SSc-RP [2]; [9]): −1.00,
- SHAQ VAS Finger Ulcers, Change from Baseline, Q1 (participants with SSc-RP [2]; [9]): −0.500,
- SHAQ VAS Finger Ulcers, Change from Baseline, Q3 (participants with SSc-RP [2]; [9]): 0.000
- SHAQ VAS Finger Ulcers, Day 12, Max (participants with SSc-RP [2]; [9]): 1.50
- SHAQ VAS Finger Ulcers, Day 12, Min (participants with SSc-RP [2]; [9]): 0.00,
- SHAQ VAS Finger Ulcers, Day 12, Q1 (participants with SSc-RP [2]; [9]): 0.000,
- SHAQ VAS Finger Ulcers, Day 12, Q3 (participants with SSc-RP [2]; [9]): 0.700
- SHAQ VAS Finger Ulcers, Percent Change from Baseline, Max (participants with SSc-RP [2]; [9]): 0.0
- SHAQ VAS Finger Ulcers, Percent Change from Baseline, Min (participants with SSc-RP [2]; [9]): −100.0,
- SHAQ VAS Finger Ulcers, Percent Change from Baseline, Q1 (participants with SSc-RP [2]; [9]): −100.00,
- SHAQ VAS Finger Ulcers, Percent Change from Baseline, Q3 (participants with SSc-RP [2]; [9]): −12.50
- SHAQ VAS Finger Ulcers, Change from Baseline, Max (participants with SSc-RP [2]; [10]): 0.40
- SHAQ VAS Finger Ulcers, Change from Baseline, Min (participants with SSc-RP [2]; [10]): −3.20,
- SHAQ VAS Finger Ulcers, Change from Baseline, Q1 (participants with SSc-RP [2]; [10]): −2.800,
- SHAQ VAS Finger Ulcers, Change from Baseline, Q3 (participants with SSc-RP [2]; [10]): 0.000
- SHAQ VAS Finger Ulcers, Day 12, Max (participants with SSc-RP [2]; [10]): 5.60
- SHAQ VAS Finger Ulcers, Day 12, Median (participants with SSc-RP [2]; [10]): 0.000
- SHAQ VAS Finger Ulcers, Day 12, Min (participants with SSc-RP [2]; [10]): 0.00,
- SHAQ VAS Finger Ulcers, Day 12, Q1 (participants with SSc-RP [2]; [10]): 0.000,
- SHAQ VAS Finger Ulcers, Day 12, Q3 (participants with SSc-RP [2]; [10]): 1.900
- SHAQ VAS Finger Ulcers, Percent Change from Baseline, Max (participants with SSc-RP [2]; [10]): 133.3
- SHAQ VAS Finger Ulcers, Percent Change from Baseline, Min (participants with SSc-RP [2]; [10]): −100.0,
- SHAQ VAS Finger Ulcers, Percent Change from Baseline, Q1 (participants with SSc-RP [2]; [10]): −81.37,
